Earlier results, collected in US20060105961A1 (Pharmacia Corporation, priority 2002, published 2006).

Tested on: tumor
Conditions: mice after radiotherapy

In the case of `COc1ccc2c(c1)c(CC(=O)O)c(C)n2C(=O)c1ccc(Cl)cc1` [indomethacin], the tumor cure rate is listed as “increases the tumor cure rate” and the tumor growth delay is listed as “prolongs tumor growth delay”.
